Data as given in PubChem BioAssay (NCI).
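Assay format: 96-well plates, 48-hour exposure. GI50 is the concentration that inhibits growth by half. TGI denotes the concentration required for complete inhibition of growth.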

Experiments:
Assay in all cases: NCI anticancer screen, dose series, 48 h
A549 NSCLC = test system: A549 NSCLC
SK-OV-3 ovarian = test system: SK-OV-3 ovarian
OVCAR-4 ovarian = test system: OVCAR-4 ovarian
CCRF-CEM leukemia = test system: CCRF-CEM leukemia
SK-MEL-5 melanoma = test system: SK-MEL-5 melanoma
T-47D breast = test system: T-47D breast
MDA-MB-435 = test system: MDA-MB-435
HS 578T breast = test system: HS 578T breast
HOP-62 NSCLC = test system: HOP-62 NSCLC
NCI-H522 lung = test system: NCI-H522 lung
HCC-2998 colon = test system: HCC-2998 colon
M14 melanoma = test system: M14 melanoma
UACC-62 melanoma = test system: UACC-62 melanoma
NCI/ADR-RES ovarian = test system: NCI/ADR-RES ovarian
SR leukemia = test system: SR leukemia
U251 CNS = test system: U251 CNS
786-0 renal = test system: 786-0 renal
EKVX NSCLC = test system: EKVX NSCLC
TK-10 renal = test system: TK-10 renal
KM12 colon = test system: KM12 colon
SF-539 CNS = test system: SF-539 CNS
MDA-MB-231 breast = test system: MDA-MB-231 breast
DU-145 prostate = test system: DU-145 prostate
HCT-15 colon = test system: HCT-15 colon
COLO 205 colon = test system: COLO 205 colon
OVCAR-5 ovarian = test system: OVCAR-5 ovarian
SNB-75 CNS = test system: SNB-75 CNS
A498 renal = test system: A498 renal
NCI-H226 lung = test system: NCI-H226 lung
SK-MEL-2 melanoma = test system: SK-MEL-2 melanoma
SF-295 CNS = test system: SF-295 CNS
HCT-116 colon = test system: HCT-116 colon
HOP-92 NSCLC = test system: HOP-92 NSCLC
SK-MEL-28 melanoma = test system: SK-MEL-28 melanoma
OVCAR-3 ovarian = test system: OVCAR-3 ovarian
MCF7 breast = test system: MCF7 breast
HT29 colon = test system: HT29 colon
SF-268 CNS = test system: SF-268 CNS
MOLT-4 leukemia = test system: MOLT-4 leukemia
CAKI-1 renal = test system: CAKI-1 renal
BT-549 breast = test system: BT-549 breast
UO-31 renal = test system: UO-31 renal
NCI-H23 lung = test system: NCI-H23 lung
ACHN renal = test system: ACHN renal
IGROV1 ovarian = test system: IGROV1 ovarian
K-562 leukemia = test system: K-562 leukemia
LOX IMVI melanoma = test system: LOX IMVI melanoma
NCI-H460 lung = test system: NCI-H460 lung
SW-620 colon = test system: SW-620 colon

SMILES: Nc1ccc(/C=N/Nc2ccnc3c(N)cccc23)c2cccnc12
- GI50 (A549 NSCLC): 1680 nM
- TGI (A549 NSCLC): 3240 nM
- GI50 (SK-OV-3 ovarian): 1820 nM
- TGI (SK-OV-3 ovarian): 3300 nM
- GI50 (OVCAR-4 ovarian): 1540 nM
- TGI (OVCAR-4 ovarian): 3350 nM
- GI50 (CCRF-CEM leukemia): 316 nM
- TGI (CCRF-CEM leukemia): 2310 nM
- GI50 (SK-MEL-5 melanoma): 1780 nM
- TGI (SK-MEL-5 melanoma): 3190 nM
- GI50 (T-47D breast): 2270 nM
- TGI (T-47D breast): 5020 nM
- GI50 (MDA-MB-435): 1640 nM
- TGI (MDA-MB-435): 3160 nM
- GI50 (HS 578T breast): 2040 nM
- TGI (HS 578T breast): 4620 nM
- GI50 (HOP-62 NSCLC): 1810 nM
- TGI (HOP-62 NSCLC): 3530 nM
- GI50 (NCI-H522 lung): 1840 nM
- TGI (NCI-H522 lung): 3620 nM
- GI50 (HCC-2998 colon): 1810 nM
- TGI (HCC-2998 colon): 3300 nM
- GI50 (M14 melanoma): 1870 nM
- TGI (M14 melanoma): 3490 nM
- GI50 (UACC-62 melanoma): 1730 nM
- TGI (UACC-62 melanoma): 3370 nM
- GI50 (NCI/ADR-RES ovarian): 1930 nM
- TGI (NCI/ADR-RES ovarian): 4410 nM
- GI50 (SR leukemia): 33.6 nM
- TGI (SR leukemia): 153 nM
- GI50 (U251 CNS): 1610 nM
- TGI (U251 CNS): 3090 nM
- GI50 (786-0 renal): 1590 nM
- TGI (786-0 renal): 3040 nM
- GI50 (EKVX NSCLC): 1630 nM
- TGI (EKVX NSCLC): 3340 nM
- GI50 (TK-10 renal): 1960 nM
- TGI (TK-10 renal): 3560 nM
- GI50 (KM12 colon): 1700 nM
- TGI (KM12 colon): 3490 nM
- GI50 (SF-539 CNS): 1740 nM
- TGI (SF-539 CNS): 3150 nM
- GI50 (MDA-MB-231 breast): 1600 nM
- TGI (MDA-MB-231 breast): 3150 nM
- GI50 (DU-145 prostate): 1680 nM
- TGI (DU-145 prostate): 3130 nM
- GI50 (HCT-15 colon): 1340 nM
- TGI (HCT-15 colon): 2900 nM
- GI50 (COLO 205 colon): 1780 nM
- TGI (COLO 205 colon): 3460 nM
- GI50 (OVCAR-5 ovarian): 1860 nM
- TGI (OVCAR-5 ovarian): 3440 nM
- GI50 (SNB-75 CNS): 1740 nM
- TGI (SNB-75 CNS): 3350 nM
- GI50 (A498 renal): 1790 nM
- TGI (A498 renal): 3300 nM
- GI50 (NCI-H226 lung): 4120 nM
- TGI (NCI-H226 lung): 20800 nM
- GI50 (SK-MEL-2 melanoma): 1700 nM
- TGI (SK-MEL-2 melanoma): 3250 nM
- GI50 (SF-295 CNS): 1570 nM
- TGI (SF-295 CNS): 3000 nM
- GI50 (HCT-116 colon): 401 nM
- TGI (HCT-116 colon): 1850 nM
- GI50 (HOP-92 NSCLC): 1580 nM
- TGI (HOP-92 NSCLC): 3140 nM
- GI50 (SK-MEL-28 melanoma): 1870 nM
- TGI (SK-MEL-28 melanoma): 3510 nM
- GI50 (OVCAR-3 ovarian): 1630 nM
- TGI (OVCAR-3 ovarian): 3160 nM
- GI50 (MCF7 breast): 1480 nM
- TGI (MCF7 breast): 3120 nM
- GI50 (HT29 colon): 1920 nM
- TGI (HT29 colon): 3470 nM

SMILES: COc1cc(CC2C(=O)NC(=O)NC2=O)ccc1OCc1ccccc1
- GI50 (OVCAR-4 ovarian): 59.8 µg/mL
- GI50 (HS 578T breast): 91.3 µg/mL
- GI50 (SNB-75 CNS): 38 µg/mL

SMILES: Nc1ncnc2c1ncn2CC(CO)CC(c1ccccc1)P(=O)(O)O (stereo unspecified)
- TGI (M14 melanoma): 1640 nM

SMILES: COc1cc2c3c(n(CCCNCCCNCCCn4c5c(c6ccccc6c4=O)C(=O)c4ccccc4-5)c(=O)c2cc1OC)-c1cc2c(cc1C3=O)OCO2
- GI50 (SF-268 CNS): < 10 nM
- TGI (SF-268 CNS): 21.7 nM
- GI50 (A549 NSCLC): 20.1 nM
- TGI (A549 NSCLC): 2300 nM
- GI50 (MOLT-4 leukemia): < 10 nM
- TGI (MOLT-4 leukemia): > 100000 nM
- GI50 (SK-MEL-5 melanoma): 29.8 nM
- TGI (SK-MEL-5 melanoma): 634 nM
- GI50 (MDA-MB-435): 154 nM
- TGI (MDA-MB-435): 1680 nM
- GI50 (CAKI-1 renal): 158 nM
- TGI (CAKI-1 renal): 2530 nM
- GI50 (BT-549 breast): < 10 nM
- TGI (BT-549 breast): 1100 nM
- GI50 (UO-31 renal): 27.2 nM
- TGI (UO-31 renal): 1690 nM
- GI50 (HOP-62 NSCLC): < 43.4 nM
- TGI (HOP-62 NSCLC): 695 nM
- GI50 (M14 melanoma): 987 nM
- TGI (M14 melanoma): 2150 nM
- GI50 (NCI/ADR-RES ovarian): > 40500 nM
- TGI (NCI/ADR-RES ovarian): > 67100 nM
- GI50 (U251 CNS): < 10 nM
- TGI (U251 CNS): 20.5 nM
- TGI (786-0 renal): 1070 nM
- GI50 (EKVX NSCLC): < 10 nM
- TGI (EKVX NSCLC): 578 nM
- GI50 (NCI-H23 lung): < 10 nM
- TGI (NCI-H23 lung): 82.6 nM
- GI50 (SF-539 CNS): < 10 nM
- GI50 (DU-145 prostate): < 10 nM
- TGI (DU-145 prostate): 213 nM
- GI50 (ACHN renal): < 10 nM
- TGI (ACHN renal): < 21.9 nM
- GI50 (IGROV1 ovarian): < 10 nM
- TGI (IGROV1 ovarian): > 100000 nM
- GI50 (K-562 leukemia): 40.3 nM
- TGI (K-562 leukemia): > 100000 nM
- GI50 (SK-MEL-2 melanoma): 640 nM
- TGI (SK-MEL-2 melanoma): 3100 nM
- GI50 (LOX IMVI melanoma): < 10 nM
- TGI (LOX IMVI melanoma): < 36.1 nM
- GI50 (NCI-H460 lung): < 10 nM
- TGI (NCI-H460 lung): 11.3 nM
- GI50 (HCT-116 colon): < 15 nM
- TGI (HCT-116 colon): 263 nM
- GI50 (SW-620 colon): < 10 nM
- TGI (SW-620 colon): 197 nM
